Patent publication US10660933B2, “Compositions and methods for inhibition of bacterial infections in human endocervix” (priority 2015, dated 2020)
“Also recorded” adds a separate entry of the source. Ends that are not written are not given here.

What was measured:
[1] = tested on: phosphorylated myosin light chain (pMLC); assay: pMLC (active NMII) redistribution in Ng-inoculated polarized T84 cells (3D-CFM); type: cell-based, human; conditions: for accumulation of pMLC at Ng adherent sites / apical:lateral FIR of pMLC: polarized T84, Ng 6 h; for junction:non-junction FIR of pMLC: polarized T84, Ng 6 h (Y27632: MS11ΔOpa); for junction:non-junction FIR of pMLC / apical:lateral FIR of pMLC: ML-7 10 μM, PIK 100 μM, Y27632 10 μM, 2APB 10 μM, BAPTA 50 μM
Description: Ng induce and Opa suppresses the redistribution of active non-muscle myosin II in polarized and endocervical epithelial cells. […] We examined the cellular distribution of active NMII after 6-h incubation with Ng, using antibody specific for phosphorylated myosin light chain (pMLC) and 3D-CFM. In uninfected polarized T84 (FIGS. 5A and 5C) and HEC-1-B cells (FIG. 10), pMLC was primarily localized at the apical junction. The polarized distribution of pMLC at the apical surface was quantified by the FIR of pMLC at the apical to the lateral (Apical:Lateral) membrane areas in individual cells using CFM images scanning across the apical and basolateral surfaces (FIGS. 5A and 5B). The polarized distribution pMLC at the apical junction was quantified by the FIR of pMLC at the junction to non-junction (Junction:Non-junction) areas of the apical region using CFM images scanning through the apical junction (FIGS. 5C and 5D). The apical inoculation of MS11Opa+ and MS11ΔOpa caused significant increases in apical:lateral FIR in both polarized T84 (FIGS. 5A and 5B) and HEC-1-B cells (FIG. 10), compared to the no Ng control. There were also significant increases in the junction:non-junction FIR in infected polarized T84 cells, compared to non-infected cells (FIGS. 5C and 5D). […] We further noticed that NMII at the apical surface appeared to accumulate at Ng adherent sites (FIG. 5A, middle panels, arrows).
(§1) Immunofluorescence analysis of polarized epithelial cells. Cells were pretreated with or without NMII kinase inhibitors, Y27632 (10 μM, EMD Millipore), ML-7 (10 μM, EMD Millipore) and PIK (100 μM) or Ca2+ inhibitors, 2APB (10 μM, EMD Millipore) and BAPTA (50 μM, EMD Millipore) for 1 h, and incubated with Ng in the presence or absence of the inhibitors for 6 h. Cell were washed and fixed with 4% paraformaldehyde, permeabilized with 1% Triton X100, and stained with anti-E-cadherin (BD Bioscience), anti-pMLC (Cell Signaling Technology, Carlsbad, Calif.), anti-Ng antibodies, and DAPI for nuclei. Cells were analyzed by CFM. Images were acquired as Z-series of 0.37 μm slices, and 3D composites obtained. Epithelial exfoliation will be quantified using xz images as described for the tissue explants. The distribution of E-cadherin and pMLC was quantitatively analyzed by measuring the FIR at the apical junctional to the cytoplasmic area (from xy images) or at the apical to lateral surface area (from xz images) in individual cells.

cytoplasmic Ca2+ = assay: Calcium imaging of Ng-inoculated polarized epithelial cells (FluoForte, Fluo-4); type: cell-based, human; conditions: MS11Opa+ and MS11ΔOpa-inoculated polarized epithelial cells, 4 h; 2APB 10 μM, BAPTA 50 μM
Text: Ng inoculation induces Ca^2+-dependent redistribution of active NMII in polarized epithelial cells. A major upstream signaling molecule of MLCK is calmodulin that is activated by Ca^2+. To investigate if Ca^2+ is involved in Ng induced redistribution of active NMII, we determined if Ng inoculation would induce Ca^2+ flux in polarized epithelial cells. We used two Ca^2+ indicators, FluoForte (FIGS. 7A and 7B) and Fluo-4 (FIG. 11) to determine the cytoplasmic Ca^2+ level. Polarized T84 (FIGS. 7A and 7B, and FIG. 11A and FIG. 11B) and HEC-1-B (FIG. 11C and FIG. 11D) were incubated apically with MS11Opa+ or MS11ΔOpa for 4 h. The cells were then loaded with the fluorescent Ca^2+ indicator, and the cell membrane marked by the membrane dye CellMask. Cells were imaged using 3D-CFM (FIG. 7A, and FIGS. 11A and 11C). The mean fluorescence intensity (MFI) of the Ca^2+ dyes in individual cells was measured to estimate the cytoplasmic level of Ca^2+ (FIG. 7B, and FIGS. 11B and 11D). […]
Calcium imaging. […] To quantify the intracellular Ca^2+ level, the cytoplasmic region of individual cells was manually selected based on the CellMask staining in randomly acquired confocal images, and the mean fluorescent intensity (MFI) of Fluoforte and Fluo-4 in the cytoplasmic region was measured using the NIH ImageJ software.

polarized T84 cells [2] = assay: Ng-induced exfoliation of polarized T84 monolayers (3D-CFM); type: cell-based, human; conditions: 6 h, inhibitor 1 h before and during, ML-7 10 μM, PIK 100 μM, Y27632 10 μM; for exfoliation of MS11ΔOpa-infected epithelial cells from T84 monolayers: 2APB 10 μM
Text: (§2) To quantify epithelial exfoliation, the number of Ng associated cells localized on the top of the epithelial monolayer (exfoliated) and the total number of Ng associated epithelial cells was counted by visual inspection in each randomly acquired image, to determine the percentage of exfoliated cells. To estimate the level of Ng penetration into the subepithelium, the number of non-exfoliated epithelial cells (in clearly visible epithelial monolayers) with basal Ng staining and the total number of Ng associated epithelial cells were visually counted to calculate the percentage of infected epithelial cells with Ng penetration into the basolateral side. To evaluate the disruption of the apical junction, the number of Ng associated epithelial cells that lost continuously apical staining of the junctional protein ZO1 and the total number of Ng associated epithelial cells were visually counted to calculate the percentage of Ng associated epithelial cells with apical junction disassembly. To quantify the redistribution of pMLC, the fluorescence intensity ratios (FIR) of pMLC staining at the apical to lateral in individual epithelial cells were determined using average FI as previously described.
as §1

[3] = tested on: Neisseria gonorrhoeae MS11; assay: Ng adherence, invasion, and transmigration assays on polarized epithelial cells; type: cell-based; conditions: for transmigration of MS11ΔOpa across the polarized T84 monolayer / Ng invasion into polarized T84 cells (gentamicin resistance): 6 h; for transmigration of MS11ΔOpa across the polarized T84 monolayer: ML-7 10 μM, PIK 100 μM, 2APB 10 μM, Y27632 10 μM; for Ng adherence to polarized T84 cells / Ng invasion into polarized T84 cells (gentamicin resistance): MS11ΔOpa, with inhibitors; for Ng adherence to polarized T84 cells: 3 h
Description: Ng adherence, invasion, and transmigration assays. The assays were performed as previously described. Briefly, polarized epithelial cells that were pretreated with or without the inhibitors for 1 h were incubated apically with Ng at 37° C. for 3 h for adherence and 6 h for invasion and transmigration assays with or without the inhibitors. Ng in the basolateral media were cultured and counted as transmigrated bacteria. Cells were washed and lysed to count adherent Ng. Cells were treated with gentamicin, washed, and lysed to count bacteria that were resistant to gentamicin treatment as invaded Ng.

polarized T84 cells [4] = assay: Exfoliation of polarized T84 cells treated with inhibitors alone, without Ng; type: cell-based, human; conditions: no Ng inoculation, 6 h
Description: Polarized T84 cells were treated with inhibitors for 6 h, fixed, stained to visualize the cell nuclei, and imaged by 3D-CFM. The percentage of cell moving above the epithelial monolayer (dash lines) was determined from three independent experiments. Scale bar, 5 μm. *p≤0.05.
as §1

[5] = tested on: Neisseria gonorrhoeae MS11ΔOpa; assay: Ng subepithelial penetration in human endocervical tissue explants (3D-CFM); type: cell-based
Description: (§3) Human endocervical tissue explants. The tissue explants were cultured as previously described. Endocervical tissues were obtained from patients undergoing voluntary hysterectomies and received within 24 h post-surgery. Samples were cut into ˜2.5 cm (L)×0.6 cm (W)×0.3 cm (H) pieces, incubated in CMRL-1066 (GIBCO, Gaithersburg, Md.) plus antibiotics for 24 h, and then switched to antibiotic-free media for 24 h.
Immunofluorescence analysis of human endocervical tissue explants. Individual endocervical tissue pieces were incubated with Ng at a MOI of ˜10 (based on the average number of endocervical epithelial cells in endocervical tissue pieces) in the presence or absence of the MLCK inhibitor ML-7 (10 μM, EMD Millipore) and PIK (100 μM) (54) on transwells for 24 h. Unassociated Ng were removed by extensive washes at 6 and 12 h. The tissue was fixed, embedded in gelatin, cryopreserved, sectioned crossing the apical and basolateral surfaces of the epithelium, stained for ZO1 (BD Bioscience), pMLC (Cell Signaling Technology, Beverly, Mass.), and Ng (51) by specific antibodies, and nuclei by DAPI (Life Technologies, Carlsbad, Calif.), and analyzed using CFM (Zeiss LSM 710, Carl Zeiss Microscopy LLC, Oberkochen, Germany). […]
as §2, with “To evaluate the disruption of the apical junction, the number of Ng associated epithelial cells that lost continuously apical staining of the junctional protein ZO1 and the total number of Ng associated epithelial cells were visually counted to calculate the percentage of Ng associated epithelial cells with apical junction disassembly.” left out

Neisseria gonorrhoeae = assay: Ng growth; type: cell-based; conditions: FIG. 13
[6] = tested on: phosphorylated myosin light chain (pMLC); assay: pMLC redistribution in Ng-inoculated human endocervical tissue explants; type: cell-based; conditions: MS11ΔOpa-inoculated endocervical tissue explants, 24 h
Description: To explore the possibility of that Ng induced NMII redistribution occurs in vivo, we incubated human endocervical tissue explants with MS11ΔOpa for 24 h. Cryo-sections of the endocervical tissue were stained for pMLC, Ng and nuclei. In addition to its apical junction localization, pMLC was concentrated at the basal surface of the endocervical epithelial cells contacting with the basal membrane (FIG. 6A, upper panels). When incubated with MS11ΔOpa, there was a redistribution of pMLC from the basal to apical surface, resulting in a significant higher apical:lateral FIR in Ng inoculated tissue explants than that in no Ng control (FIG. 6), similar to what we observed in polarized T84 (FIGS. 5A and 5B) and HEC-1-B cells (FIG. 10). Furthermore, pMLC at the apical surface of the endocervical epithelial cells also concentrated at Ng adherent sites (FIG. 6A, second row, white arrows), but not at the membrane of cells neighboring exfoliating cells (FIG. 6A, second row, orange arrows). These observations confirm that Ng increase the relative amount of activated NMII at the apical surface of the endocervical epithelial cells in human tissue explants. […]
(§4) Immunofluorescence analysis of human endocervical tissue explants. […] The tissue was fixed, embedded in gelatin, cryopreserved, sectioned crossing the apical and basolateral surfaces of the epithelium, stained for ZO1 (BD Bioscience), pMLC (Cell Signaling Technology, Beverly, Mass.), and Ng (51) by specific antibodies, and nuclei by DAPI (Life Technologies, Carlsbad, Calif.), and analyzed using CFM (Zeiss LSM 710, Carl Zeiss Microscopy LLC, Oberkochen, Germany). […]
as §2, with “To quantify the redistribution of pMLC, the fluorescence intensity ratios (FIR) of pMLC staining at the apical to lateral in individual epithelial cells were determined using average FI as previously described.” left out

[7] = tested on: human endocervical tissue explants; assay: Ng-induced epithelial exfoliation of human endocervical tissue explants (3D-CFM); type: cell-based; conditions: MS11ΔOpa, 24 h; ML-7 10 μM, PIK 100 μM
Description: as §3, §4
To quantify epithelial exfoliation, the number of Ng associated cells localized on the top of the epithelial monolayer (exfoliated) and the total number of Ng associated epithelial cells was counted by visual inspection in each randomly acquired image, to determine the percentage of exfoliated cells. […] To quantify the redistribution of pMLC, the fluorescence intensity ratios (FIR) of pMLC staining at the apical to lateral in individual epithelial cells were determined using average FI as previously described.

| Compound | accumulation of pMLC at Ng adherent sites [1] | junction:non-junction FIR of pMLC [1] | apical:lateral FIR of pMLC [1] | MFI of the Ca2+ indicators (cytoplasmic Ca2+ level) (cytoplasmic Ca2+) | exfoliation of MS11Opa+-infected epithelial cells from T84 monolayers (polarized T84 cells [2]; MS11Opa+) | exfoliation of MS11ΔOpa-infected epithelial cells from T84 monolayers (polarized T84 cells [2]) | transmigration of MS11ΔOpa across the polarized T84 monolayer [3] | Ng adherence to polarized T84 cells [3] | Ng invasion into polarized T84 cells (gentamicin resistance) [3] | epithelial exfoliation with inhibitors alone (polarized T84 cells [4]) | Ng penetration into human endocervical epithelia ([5]; FIG. 12A-B) | percentage of epithelial cells with basally associated Ng ([5]; MS11ΔOpa, 24 h, ML-7 10 μM or PIK 100 μM, 27% without inhibitor) [%] | Ng growth (Neisseria gonorrhoeae) | pMLC accumulation at Ng adherent sites [6] | apical:lateral FIR of pMLC ([6]; ML-7 10 μM, PIK 100 μM) | Ng trans-migration across polarized human epithelial cells ([3]; FIG. 12C) | epithelial exfoliation of human endocervical tissue explants [7] |
| --- | --- | --- | --- | --- | --- | --- | --- | --- | --- | --- | --- | --- | --- | --- | --- | --- | --- |
| O=C(O)CN(CC(=O)O)c1ccccc1OCCOc1ccccc1N(CC(=O)O)CC(=O)O [BAPTA] | decreased | decreased | decreased | back to the basal level |  |  |  |  |  |  |  |  |  |  |  |  |  |
| C[C@@H](N)[C@H]1CC[C@H](C(=O)Nc2ccncc2)CC1 [Y27632] |  | further increased |  |  | did not significantly change the percentage of epithelial exfoliation | did not significantly change the percentage of epithelial exfoliation | had no impact | had no impact | had no impact |  |  |  |  |  |  |  |  |
| Cc1ccc2c(c1)C(=O)C1(O)CCN(c3ccccc3)C1=N2 (centres unmarked) [blebbistatin] |  |  |  |  |  |  |  |  |  | increased epithelial exfoliation |  |  |  |  |  |  |  |
| PIK: peptide MLCK inhibitor comprising SEQ ID NO:1 (lys-arg-arg-tyr-lys-tyr-lys-lys-arg) with at least one D-amino acid; from U.S. Pat. No. 7,585,844 (KRRYKYKKR; also: at least one D-amino acid, places not given here) | significantly reduced | significantly reduced | significantly reduced |  |  | reduced the exfoliation | significantly reduced the transmigration | none of these inhibitors had any significant effect | none of these inhibitors had any significant effect | did not affect epithelial exfoliation | inhibits Ng penetration; also recorded: robust inhibition | 7.1 | suppresses Ng growth | significantly reduced | significantly reduced | inhibits | decreased the epithelial exfoliation of human endocervical tissue explants to the basal level |
